Numbers after ± are expanded uncertainties.
Experiment: xn = mol fraction of the nth substance listed
Settings: Gas, Buoyancy - hydrostatic balance with magnetic suspension - one sinker, x2 = 0.8977

N#N [nitrogen] + C
mass density (170.59 K, 761.2 kPa): 10.0103 ± 0.2 kg/m3 | mass density (170.59 K, 1037.8 kPa): 14.0966 ± 0.28 kg/m3 | mass density (170.59 K, 1287.8 kPa): 18.0625 ± 0.36 kg/m3 | mass density (170.6 K, 455.1 kPa): 5.7907 ± 0.12 kg/m3 | mass density (187.47 K, 422.8 kPa): 4.8286 ± 0.097 kg/m3 | mass density (187.47 K, 722.4 kPa): 8.4419 ± 0.17 kg/m3 | mass density (187.47 K, 1064.8 kPa): 12.7954 ± 0.26 kg/m3 | mass density (187.47 K, 1349.6 kPa): 16.6251 ± 0.33 kg/m3 | mass density (217.54 K, 441.1 kPa): 4.2954 ± 0.086 kg/m3 | mass density (217.54 K, 1298.9 kPa): 13.1778 ± 0.26 kg/m3 | mass density (217.54 K, 1475.3 kPa): 15.0994 ± 0.3 kg/m3 | mass density (217.55 K, 724.1 kPa): 7.1436 ± 0.14 kg/m3 | mass density (217.55 K, 1017.9 kPa): 10.1853 ± 0.2 kg/m3 | mass density (240.48 K, 975.3 kPa): 8.695 ± 0.17 kg/m3 | mass density (240.48 K, 1256.7 kPa): 11.3113 ± 0.23 kg/m3 | mass density (240.48 K, 1594.5 kPa): 14.5212 ± 0.29 kg/m3 | mass density (240.49 K, 438.2 kPa): 3.8367 ± 0.077 kg/m3 | mass density (240.49 K, 715.8 kPa): 6.3263 ± 0.13 kg/m3 | mass density (261 K, 145.7 kPa): 1.1633 ± 0.024 kg/m3 | mass density (261 K, 436.6 kPa): 3.5148 ± 0.07 kg/m3 | mass density (261 K, 729 kPa): 5.9093 ± 0.12 kg/m3 | mass density (261 K, 1021.7 kPa): 8.3427 ± 0.17 kg/m3 | mass density (270.05 K, 133.3 kPa): 1.0285 ± 0.021 kg/m3 | mass density (270.05 K, 424.6 kPa): 3.2976 ± 0.066 kg/m3 | mass density (270.05 K, 731.4 kPa): 5.7195 ± 0.11 kg/m3 | mass density (270.05 K, 1025.7 kPa): 8.0721 ± 0.16 kg/m3 | mass density (270.05 K, 1195.4 kPa): 9.445 ± 0.19 kg/m3

From the NIST ThermoML archive (doi:10.1016/j.jct.2012.12.018)
